# Source: patent US11896713B2, “Strategies to enhance lung cancer treatment” (Rutgers, The State University of New Jersey, priority 2020, dated 2024)
# “Also recorded” adds a separate entry of the source. Residues, ends and D or L forms follow the SMILES beside them.
# What was measured:
# human lung cancer cells = test: Orthotopic lung cancer model treated with liposomal cisplatin or carboplatin; assay type: in vivo, mice; details: intravenous, 2.5 mg/kg
# Protocol: Orthotopic lung cancer mouse model was created by intratracheal instillation of human lung cancer cells. The progression of tumor growth was monitored using bioluminescent and magnetic resonance (MRI) imaging. Luciferase transfected cancer cells were visualized in live anesthetized animals using in-vivo bioluminescence IVIS system (Xenogen, Alameda, CA). Luciferin (150 mg/kg) was intraperitoneally administered 10-15 minutes before imaging. All imaging procedures were performed at special imaging facilities of the Rutgers University Molecular Imaging Center as previously described. Mice were anesthetized with isoflurane (4% for induction of anesthesia and 1-2% for maintenance) using XGI-8 Gas Anesthesia System (Xenogen, Alameda, CA) for all imaging procedures. MRI was performed using a 1 T M2™ whole body scanner (Aspect Imaging, Shoham, Israel). Images (repetition time 2607 ms, echo time 44 ms) were recorded in Fast Spin Echo sequence. At a spatial resolution of 312 μm, the tumors were coronal imaged in a single section through the mouse body using an image matrix of 256×256, a field of view of 80 mm^2, and 4 excitation. Magnetic resonance signal and tumor volume were calculated using VivoQuant 1.21 software (Invicro, Boston, MA).
# In order to deliver liposome-based system by inhalation, a Collison nebulizer (BGI, Inc., Waltham, MA) was connected to four-port nose-only exposure chambers (the chamber was made by CH Technologies, Westwood, NJ according to our design). […] The installation was designed and regime of inhalation was selected to keep the inhalation dosage controllable and uniform from animal to animal with a minimal damage to the nanoparticles. The solution of NLC was aerosolized at a flow rate of 2 L/min and then diluted by an additional 2 L/min of air. […] It was also shown that the aerosol distribution between the four ports of the chamber was homogenous. The dose of Cis and Carb in all drug-containing formulations was 2.5 mg/kg for the single administration.
# [1] = system: LHRH-positive lung cancer cells; test: Cytotoxicity (MTT) and competitive inhibition by LHRH peptide; assay type: cell-based
# Protocol: (§1) Cytotoxicity, Apoptosis Induction and Immune Response. The toxicities of the developed formulations were compared with a commercially used EGFR inhibitor gefitinib in three types of human lung cancer cells with different resistance to the drug. […] Cytotoxicity and apoptosis induction were analyzed by a modified 3-(4,5-Dimethylthiazol-2-yl)-2,5-diphenyltetrazolium bromide (MTT) assay and cell death detection ELISA Plus kit (Roche, Nutley, NJ), respectively. The cells were seeded on a 96 well plate at 10,000 cells per well with 100 μl of growth media in each well and placed in the incubator for 24 hours. After 24 hours, the media was removed and the cells were treated with varying concentrations of above indicated substances. The concentrations of tested substances were prepared using a serial dilution (1:2) to make 12 different working solutions for the cytotoxicity measurement.
# A549 cells = test: Cytotoxicity (MTT); assay type: cell-based, human; details: 72 h, 1 μM
# NCI-H3255 cells = test: Cytotoxicity (MTT); assay type: cell-based, human; details: 72 h, 1 μM
# Protocol: as §1
# NCI-H1781 cells = test: Cytotoxicity (MTT); assay type: cell-based, human; details: 72 h, 1 μM
# Protocol: as §1
# [2] = system: NCI-H1781, A549 and NCI-H3255 NSCLC cell lines; test: Apoptosis induction (cell death detection ELISA); assay type: cell-based, human; details: 72 h; 1 μM gefitinib or 0.3 ng/ml nanocarrier
# Protocol: as §1
# The control cells were incubated with fresh media. Previously validated in our laboratory MTT and apoptosis induction measurement protocols were used.
# A549 lung cancer cells = test: Orthotopic lung cancer model, tumor volume; assay type: in vivo, mice; details: intravenous, TAX 2.5 mg/kg
# Protocol: In Vivo Lung Cancer Model, Imaging and Treatment. All animal experiments were carried out according to the protocol approved by Institutional Animal Care and Use Committee (IACUC). Nude mice were purchased from the approved commercial vendor (Taconic, Germantown, NY). All aspects of the program for procurement, conditioning/quarantine, housing management, veterinary care and disposal of carcasses followed the guidelines set forth in the NIH Guide for the Care and Use of Laboratory Animals. Animals were housed in the […]—accredited animal facility with free access to food and water. Veterinary care was supplied by Rutgers University Lab Animal Services. Orthotopic lung cancer mouse model was created by intratracheal instillation of A549 lung cancer cells as previously described. The progression of tumor growth was monitored using bioluminescent and magnetic resonance (MRI) imaging. Luciferase transfected cancer cells were visualized in live anesthetized animals using in-vivo bioluminescence IVIS system (Xenogen, Alameda, CA). Luciferin (150 mg/kg) was intraperitoneally administered 10-15 minutes before imaging. […] Images (repetition time 2607 ms, echo time 44 ms) were recorded in Fast Spin Echo sequence. […] Magnetic resonance signal and tumor volume were calculated using VivoQuant 1.21 software (Invicro, Boston, MA). […]
smiles,measurement,setting,value
"N.N.O=C([O-])C1(C(=O)[O-])CCC1.[Pt+2] [Carb, carboplatin]",antitumor effect,human lung cancer cells,slightly slowed the tumor progression; also recorded: somewhat higher antitumor activity
"N.N.[Cl][Pt][Cl] [Cis, cisplatin]",antitumor effect,human lung cancer cells,slightly slowed the tumor progression
"CCNC(=O)[C@@H]1CCCN1C(=O)[C@H](CCCNC(=N)N)NC(=O)[C@H](CC(C)C)NC(=O)[C@@H](CCCCNC(=O)[C@H](N)CS)NC(=O)[C@H](Cc1ccc(O)cc1)NC(=O)[C@H](CO)NC(=O)[C@H](Cc1c[nH]c2ccccc12)NC(=O)[C@H](Cc1c[nH]cn1)NC(=O)[C@@H](N)CCC(N)=O [LHRH peptide, Gln-His-Trp-Ser-Tyr-DLys(D-Cys)-Leu-Arg-Pro] (HELM PEPTIDE1{Q.H.W.S.Y.[dK].L.R.P.[CCN[*:1]]}|PEPTIDE2{[dC]}$PEPTIDE1,PEPTIDE2,6:R3-1:R2$$$V2.0)",cytotoxicity,[1],did not demonstrate any toxicity
same,effect of LHRH receptor ligand on cytotoxicity of LHRH-NLC-TAX,[1]; cells incubated with different concentrations of LHRH peptide,limited cytotoxicity of LHRH-NLC-TAX in a concentration-dependent manner
COc1cc2ncnc(Nc3ccc(F)c(Cl)c3)c2cc1OCCCN1CCOCC1 [gefitinib],sensitivity to gefitinib,A549 cells,moderate sensitivity to gefitinib
same,sensitivity to gefitinib,NCI-H3255 cells,the most sensitive to gefitinib
same,sensitivity to gefitinib,NCI-H1781 cells,most resistant to gefitinib
same,apoptosis induction,[2],correlated with its cytotoxicity
"CC(=O)O[C@H]1C(=O)[C@@]2(C)[C@H]([C@H](OC(=O)c3ccccc3)[C@]3(O)C[C@H](OC(=O)[C@H](O)[C@@H](NC(=O)c4ccccc4)c4ccccc4)C(C)=C1C3(C)C)[C@]1(OC(C)=O)CO[C@@H]1C[C@@H]2O [TAX, Paclitaxel]",decrease of lung tumor volume at the end of the experiment,A549 lung cancer cells,1.1 times
